Data as given in patent US7999069B2, “EphB receptor-binding peptides” (Sanford-Burnham Medical Research Institute, priority 2005, dated 2011).
Values joined by “and” are separate entries in the source; they are usually repeats but may differ in a detail not shown here. Identical values can stand only once. Like-named read-outs stand apart in the source and are kept apart here. No end group written: not given here.

Legend:
[1] = target: T1, EphB4 (Homo sapiens, UniProt P54760); assay: Inhibition of ephrin-B2 AP binding to immobilized EphB4 ectodomain
T1 construct: panned on the ectodomains of EphB1, EphB2, or EphB4 fused to human Fc
T1 sequence (P54760 16-539 limits assumed): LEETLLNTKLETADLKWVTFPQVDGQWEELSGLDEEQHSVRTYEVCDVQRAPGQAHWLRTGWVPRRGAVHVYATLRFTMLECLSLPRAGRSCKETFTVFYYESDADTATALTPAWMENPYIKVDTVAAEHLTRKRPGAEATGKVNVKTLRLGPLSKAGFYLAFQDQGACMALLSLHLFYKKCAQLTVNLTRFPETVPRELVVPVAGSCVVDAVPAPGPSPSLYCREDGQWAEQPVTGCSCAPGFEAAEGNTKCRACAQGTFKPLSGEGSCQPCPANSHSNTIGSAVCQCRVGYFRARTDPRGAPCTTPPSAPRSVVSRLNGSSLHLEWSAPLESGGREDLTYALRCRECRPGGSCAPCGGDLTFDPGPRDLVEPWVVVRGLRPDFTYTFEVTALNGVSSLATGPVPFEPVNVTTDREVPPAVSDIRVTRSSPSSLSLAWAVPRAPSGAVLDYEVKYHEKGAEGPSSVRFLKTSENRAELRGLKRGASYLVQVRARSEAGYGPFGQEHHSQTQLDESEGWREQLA
Experimental: Peptides that bind to the same receptor region as the ephrins would be expected to inhibit Eph receptor-ephrin association, if they interact with sufficient affinity. A number of synthetic peptides were tested for their ability to inhibit binding of alkaline phosphatase-tagged ephrin-B2 (ephrin-B2-AP) to EphB receptors (FIG. 3). Most of the peptides were synthesized with a biotin tag and immobilized on streptavidin plates to verify their ability to capture the EphB ectodomains used for their isolation.
Ephrin-B2 AP binding to the indicated immobilized EphB receptor ectodomains was measured in the presence of the indicated peptides and detected by measuring alkaline phosphatase activity. […]. […] Wells coated with the different EphB ectodomains were incubated with ephrin-B2 AP and 50 μM of the indicated peptides. Ephrin-B2 AP binding in the presence of peptide was normalized to binding in the absence of peptide. All peptides were biotinylated except for FSPQ and EWYM. […] Therefore, IPWT was not used for further experiments. The EWYM, TWO, and FSPQ peptides were not synthesized with a biotin tag and therefore were tested directly for inhibition of ephrin-B2 binding. The EWLS, SNEW, and TNYL peptides were selective because they antagonized ephrin binding to only one EphB receptor (FIGS. 3B, D, and F).
The GP motif aligns with the GP motif of TNYL and the RAW motif aligns precisely next to the last amino acid of TNYL. […] For competition assays between peptides and ephrin-B2 alkaline phosphatase fusion protein (ephrin-B2 AP), the concentration of ephrin-B2 AP used was adjusted to obtain similar signals with different EphB receptors (0.135-1.45 OD min^−1ml^−1). Ephrin-B2 AP was co-incubated for 1 hr with different peptide concentrations in Ni-NTA wells coated with 1 μg/ml Eph receptor Fc. After several washes, the amount of ephrin-B2-AP bound was quantified using p-nitrophenylphosphate as a substrate. Alkaline phosphatase activity from wells without EphB Fc was subtracted as background. […] […]. In these experiments, the two peptides are not biotinylated. […] Ephrin-B2-AP binding in the presence of peptide was normalized to binding in the absence of peptide in (A) and (B). […] Endogenous EphB4 was immunoprecipitated from MCF7 breast cancer cells after stimulation with ephrin-B2 Fc, or Fc as a control, and probed by immunoblotting with anti-phosphotyrosine antibodies (PTyr). […] The filters were reprobed with EphB4 antibodies to confirm equal amounts of immunoprecipitated receptor.

[2] = system: EphB receptors; assay: Ephrin-B2 AP binding to different EphB ectodomains in presence of peptide (selectivity); details: 10 μM peptide
Experimental: Ephrin-B2 AP binding to the indicated immobilized EphB receptor ectodomains was measured in the presence of the indicated peptides and detected by measuring alkaline phosphatase activity. […] Wells coated with the different EphB ectodomains were incubated with ephrin-B2 AP and 50 μM of the indicated peptides. Ephrin-B2 AP binding in the presence of peptide was normalized to binding in the absence of peptide. All peptides were biotinylated except for FSPQ and EWYM. […] The EWYM, TWO, and FSPQ peptides were not synthesized with a biotin tag and therefore were tested directly for inhibition of ephrin-B2 binding.
Ephrin-B2 AP was co-incubated for 1 hr with different peptide concentrations in Ni-NTA wells coated with 1 μg/ml Eph receptor Fc. After several washes, the amount of ephrin-B2-AP bound was quantified using p-nitrophenylphosphate as a substrate. Alkaline phosphatase activity from wells without EphB Fc was subtracted as background. […] In these experiments, the two peptides are not biotinylated. […] Ephrin-B2-AP binding in the presence of peptide was normalized to binding in the absence of peptide in (A) and (B).

[3] = target: T2, EphB4 (Homo sapiens, UniProt P54760); assay: Ephrin-B2 Fc-induced EphB4 tyrosine phosphorylation in breast cancer cells; assay type: cell-based; details: MCF7 cells
T2 construct: MCF-7 human breast cancer cells, which endogenously express EphB4; endogenous in cells; host or cells: MCF7
T2 sequence (P54760 16-987): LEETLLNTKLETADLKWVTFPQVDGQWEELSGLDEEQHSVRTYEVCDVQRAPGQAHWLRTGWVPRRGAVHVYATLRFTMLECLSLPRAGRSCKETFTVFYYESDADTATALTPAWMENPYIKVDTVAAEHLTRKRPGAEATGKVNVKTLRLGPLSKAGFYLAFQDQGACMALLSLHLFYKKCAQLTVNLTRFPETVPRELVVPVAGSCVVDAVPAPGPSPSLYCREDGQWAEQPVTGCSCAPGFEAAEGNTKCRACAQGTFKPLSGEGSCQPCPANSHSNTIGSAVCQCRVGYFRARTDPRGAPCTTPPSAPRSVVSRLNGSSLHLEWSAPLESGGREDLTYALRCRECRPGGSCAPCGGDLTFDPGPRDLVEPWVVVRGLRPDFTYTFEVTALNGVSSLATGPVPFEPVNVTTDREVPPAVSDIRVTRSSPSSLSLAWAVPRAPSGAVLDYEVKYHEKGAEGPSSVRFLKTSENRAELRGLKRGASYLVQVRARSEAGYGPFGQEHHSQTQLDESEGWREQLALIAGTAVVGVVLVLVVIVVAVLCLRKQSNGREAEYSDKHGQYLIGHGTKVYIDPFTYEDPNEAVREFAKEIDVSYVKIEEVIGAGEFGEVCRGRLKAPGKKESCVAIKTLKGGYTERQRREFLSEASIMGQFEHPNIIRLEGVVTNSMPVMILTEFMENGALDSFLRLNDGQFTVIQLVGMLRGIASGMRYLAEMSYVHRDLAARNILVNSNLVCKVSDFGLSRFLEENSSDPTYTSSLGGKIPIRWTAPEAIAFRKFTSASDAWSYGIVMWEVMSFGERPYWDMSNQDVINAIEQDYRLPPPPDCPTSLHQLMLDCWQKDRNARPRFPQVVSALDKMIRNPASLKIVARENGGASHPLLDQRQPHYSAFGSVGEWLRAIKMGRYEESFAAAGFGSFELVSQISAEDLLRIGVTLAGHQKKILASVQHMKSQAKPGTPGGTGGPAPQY
Experimental: Preincubation of COS cells with the SNEW peptide in a concentration-dependent manner blocked the ability of ephrin-B1 Fc to induce tyrosine phosphorylation, and therefore activation, of endogenous EphB2 (FIG. 4A). EphB2 was immunoprecipitated from COS cells after stimulation with ephrin-B1 Fc, or Fc as a control, in the presence of the indicated concentrations of SNEW peptide and control RTVA peptide. For EphB2 immunoprecipitations, COS cells were serum-starved in DME high glucose for 3 hrs prior to stimulation with 1 μg/ml ephrin-B1 Fc or Fc protein in the presence or absence of EphB2-binding peptides or a control peptide. […] After ephrin stimulation, the cells were lysed in modified RIPA buffer (150 mM NaCl, 1 mM EDTA, 1% Triton X-100, 1% Na deoxycholate, 0.1% SDS, 20 mM Tris pH 8.0) with protease inhibitors and 1 mM sodium orthovanadate. Cell lysates were used for immunoprecipitation with either 5 μg EphB2 antibodies or 10 μg EphB4 antibodies. […]
The GP motif aligns with the GP motif of TNYL and the RAW motif aligns precisely next to the last amino acid of TNYL. […] After several washes, the amount of ephrin-B2-AP bound was quantified using p-nitrophenylphosphate as a substrate. […]

[4] = system: Eph receptor Fc proteins; assay: Immobilized biotinylated peptides capturing Eph receptor Fc proteins on streptavidin plates; assay type: binding; details: for Eph receptor binding selectivity of immobilized biotinylated peptide: A- and B-class Eph receptor Fc proteins
Experimental: To measure the specificity of peptide binding to Eph receptors, biotinylated peptides were immobilized on streptavidin-coated plates at 10 μM (Pierce Biotechnology, Rockford, Ill.) and incubated for 1 hr with different Eph ectodomain Fc fusion proteins at 2.5 μg/ml in binding buffer. Bound receptor was detected using an anti-Fc antibody coupled to alkaline phosphatase (Promega) with p-nitrophenylphosphate as substrate (Pierce). The background that was subtracted from the measurements was determined by omitting the Eph ectodomain.
Biotinylated peptides were immobilized on streptavidin-coated plates and used to capture Eph receptor Fc proteins. Bound receptor was detected using anti-Fc antibody coupled to alkaline phosphatase and was normalized to the value in the well with highest receptor binding.

[5] = target: T2, EphB4; assay: Peptide pull-down of EphB4 from MCF7 or transfected 293T cells; assay type: binding
Experimental: The ability of the peptides to bind in a stable manner, which is important for both targeting and competitive inhibition, was tested in pull-down experiments. For peptide pull-down experiments, cells in 60 cm plates at 70% confluency or adult mouse brain tissue were solubilized in pull-down buffer (50 mM HEPES pH 7.5, 150 mM NaCl, 10% glycerol, 1% Triton-X100, 5 mM KCl and 1 mM EDTA). Three μg of biotinylated peptide were incubated for 45-90 min with 5 μl streptavidin agarose beads (Sigma), unbound peptide was washed away, and the beads were incubated with the cell lysates for 45-90 min. Proteins bound to the beads were separated by SDS-polyacrylamide gel electrophoresis and probed by immunoblotting with EphB1, EphB2, or EphB4 antibodies. The EphB1 antibody (Santa Cruz) was detected with a secondary anti-goat IgG peroxidase-conjugated antibody (BioRad Laboratories). The EphB2 and EphB4 antibodies were affinity-purified polyclonal antibodies to GST fusion proteins containing approximately 100 amino acids from the carboxy-terminal tails of the EphB2 or EphB4 receptors (Noren, N. K. et al. 2004 PNAS USA 101:5583-5588; Holash, J. A. & Pasquale, E. B. 1995 Devel Biol 172:683-693) and were detected with a secondary anti-rabbit IgG peroxidase-conjugated antibody (Amersham Biosciences).
Endogenous EphB receptors were isolated from lysates of mouse brain or cultured cells using the EWLS, SNEW, and TNYL peptides immobilized on streptavidin beads (FIGS. 5B, F, G and H). […] RTVA was used as a control peptide for the EphB4 pull downs. The NPVI peptide could isolate EphB4 from transfected cells but not endogenous EphB4 from MCF7 cells, which is present at lower levels (FIGS. 5B, F, G and H). […] EphB receptors were not detected bound to the beads coated with the other peptides.

[6] = Peptide IC50: concentration of peptide required to inhibit ephrin-B2 AP binding by 50%, biotinylated synthetic peptides except EWYM and FSPQ

Compound: TNYLFSPNGPIARAW [TNYL-RAW]
- IC50 ([1]; non-biotinylated peptide or dimeric ephrin-B2 Fc, read-out: IC50 for inhibition of ephrin-B2 AP binding to EphB4): ~0.015 µM
- Selectivity of antagonism of ephrin-B2 AP binding across EphB ectodomains [2]: inhibits binding of ephrin-B2 AP to the immobilized EphB4 ectodomain but not other EphB ectodomains
- Inhibition of basal EphB4 tyrosine phosphorylation [3]: inhibited
- Inhibition of ephrin-B2 Fc-induced EphB4 tyrosine phosphorylation ([3]; concentration-dependent): inhibited in a concentration-dependent manner EphB4 tyrosine phosphorylation

Compound: SEQ ID NO 10: 12-mer from EphB2 panning; printed DHWRI[image]PFSLSS (DHWRILPFSLSS)
- Eph receptor binding selectivity of immobilized biotinylated peptide [4]: less specific

Compound: CC[C@H](C)[C@H](NC(=O)[C@@H]1CCCN1C(=O)CNC(=O)[C@H](CC(N)=O)NC(=O)[C@@H]1CCCN1C(=O)[C@H](CO)NC(=O)[C@H](Cc1ccccc1)NC(=O)[C@H](CC(C)C)NC(=O)[C@H](Cc1ccc(O)cc1)NC(=O)[C@H](CC(N)=O)NC(=O)[C@@H](N)[C@@H](C)O)C(=O)N[C@@H](C)C(=O)O [SEQ ID NO 24]
- IC50 [1, 6]: ~50 µM
- IC50 ([1]; non-biotinylated peptide, read-out: IC50 for inhibition of ephrin-B2 AP binding): 150 µM and ~150 µM

Compound: NPVIGPIQRAWT [SEQ ID NO 27]
- Pull-down of endogenous EphB4 ([5]; MCF7 breast cancer cell line): did not detectably bind
- Pull-down of transfected EphB4 ([5]; transfected 293T human embryonic kidney cells): bound the more highly expressed EphB4

Compound: SEQ ID NO 34: 12-mer from EphB4 panning; printed IPWTQ[image]MAMSPM (IPWTQHMAMSPM)
- Capture of the EphB ectodomain used for isolation by immobilized biotinylated peptide ([4]; EphB4): failed to bind

Compound: DHNHNLYNPWRL [SEQ ID NO 21]
- IC50 [1, 6]: ~200 µM

Compound: SEQ ID NO 14: 12-mer from EphB2 panning; printed SHW[image]ISPYSLLS (SHWPISPYSLLS)
- Eph receptor binding selectivity of immobilized biotinylated peptide [4]: less specific
